Laboratory results from patent US9700546B2, “Trivalent chromium compounds, compositions and methods of use” (INTERHEALTH NUTRACEUTICALS, INC., priority 2006, dated 2017).
Like-named read-outs stand apart in the source and are kept apart here.

Legend:
Obese Zucker rats [1] = settings: rat, in vivo
Obese Zucker rats [2] = experiment: In vivo assessment in obese Zucker rats: body weight and food intake; settings: obese Zucker rats, daily 400 μg Cr(III)/kg, mean; for Food Intake 5 wks: at 5 weeks; for Food Intake 7 wks: at 7 weeks
Obese Zucker rats [3] = experiment: In vivo assessment in obese Zucker rats: blood lipid profile (total cholesterol, triglycerides, HDL); settings: daily 400 μg Cr(III)/kg, 8 weeks, mean
Obese Zucker rats [4] = experiment: In vivo assessment in obese Zucker rats: other vascular inflammation markers (cAMP, TNFα, IL-6, OxyDNA); settings: obese Zucker rats, daily 400 μg Cr(III)/kg, 8 weeks, mean ± SE; for OxyDNA: oxidative DNA damage
Obese Zucker rats [5] = experiment: In vivo assessment in obese Zucker rats: vascular inflammation markers (MCP-1, CRP, RBP-4, leptin, ICAM, adiponectin); settings: obese Zucker rats, daily 400 μg Cr(III)/kg, 8 weeks, mean; for Adiponectin / CRP / ICAM / MCP-1: plasma, ELISA
Obese Zucker rats [6] = experiment: In vivo assessment in obese Zucker rats: key biological parameters (fasting glucose, HbA1c, vitamin C, GSH, RBC lipid peroxidation); settings: obese Zucker rats, daily 400 μg Cr(III)/kg, 8 weeks, mean; for RBC Lipid Peroxidase: malondialdehyde by thiobarbituric acid; for Fasting Glucose: fasted overnight; for Vitamin C: plasma
yeast = settings: Cooper et al. 1984; cited from earlier work
insulin = settings: in vitro; cited from earlier work
Obese Zucker rats [7] = experiment: In vivo assessment in obese Zucker rats: clinical chemistry (AP, BUN, CRT, AST, ALT); settings: obese Zucker rats; mean ± SE
[8] = cited from earlier work; for chromium absorbed (average): men and women
[9] = typical; cited from earlier work

Compound | Food Intake 5 wks (Obese Zucker rats [2]) | Food Intake 7 wks (Obese Zucker rats [2]) | HDL (Obese Zucker rats [3]) | Total Cholesterol (Obese Zucker rats [3]) | Triglyceride (Obese Zucker rats [3]) | IL-6 (Obese Zucker rats [4]) | TNFα (Obese Zucker rats [4]) | cAMP (Obese Zucker rats [4]) | OxyDNA (Obese Zucker rats [4]) | Leptin (Obese Zucker rats [5]) | RBP-4 (Obese Zucker rats [5]) | Adiponectin (Obese Zucker rats [5]) | CRP (Obese Zucker rats [5]) | ICAM (Obese Zucker rats [5]) | MCP-1 (Obese Zucker rats [5]) | RBC Lipid Peroxidase (Obese Zucker rats [6]) | Fasting Glucose (Obese Zucker rats [6]) | GSH (Obese Zucker rats [6]) | HbA1c (Obese Zucker rats [6]) | Vitamin C (Obese Zucker rats [6]) | further results
N=C(N)NCCC[C@H](N)C(=O)O [Arg, Arginine, reference compound] | 37.73 g/day | 46.80 g/day | 68.69 mg/dL | 173.96 mg/dL | 485.74 mg/dL | 97.80 ± 0.93 pg/mL | 25.45 ± 0.93 pg/mL | 34.98 ± 0.92 pmol/mL | 62.90 ± 2.71 ng/mL | 431.72 pg/mL | 47211.67 ng/mL | 9958.63 ng/mL | 617.34 ng/mL | 17940.91 pg/mL | 3878.85 pg/mL | 2.23 nmol/mL | 446.60 mg/dL | 4.77 µmol/g | 15.88% | 0.14 mg % | ALT (Alanine Aminotransferease) (Obese Zucker rats [1]): 179.20 u/L; AP (Alkaline phosphatase) (Obese Zucker rats [1]): 35.50 u/L; AST (Aspartate Aminotransferase) (Obese Zucker rats [1]): 276.80 u/L; BUN (Blood Urea Nitrogen) (Obese Zucker rats [1]): 21.00 mg/dL; CRT (Creatinine) (Obese Zucker rats [1]): 0.40 mg/dL; Total Bilirubin (Obese Zucker rats [1]): 0.00 mg/dL; Total Chol/HDL (Obese Zucker rats [3]): 2.86 ratio
NC(C[S-])C(=O)[O-].NC(C[S-])C(=O)[O-].[Cr+3] (stereo not drawn) [Cr(cysteine)2^−] | – | – | – | – | – | – | – | – | – | – | – | – | – | – | – | – | – | – | – | – | glucose tolerance factor activity in yeast assay (yeast): not active
NC(=O)CCC(N)C(=O)[O-].NC(=O)CCC(N)C(=O)[O-].O.O.[Cr+3] (stereo not drawn) [Cr(glutamine)2(H2O)2^+] | – | – | – | – | – | – | – | – | – | – | – | – | – | – | – | – | – | – | – | – | glucose tolerance factor activity in yeast assay (yeast): significant activity
N[C@@H](CS)C(=O)O [Cys, Cysteine, reference compound] | 39.40 g/day | 39.87 g/day | 68.26 mg/dL | 183.58 mg/dL | 503.57 mg/dL | 95.33 ± 2.33 pg/mL | 24.28 ± 3.84 pg/mL | 32.94 ± 1.79 pmol/mL | 54.56 ± 5.69 ng/mL | 477.65 pg/mL | 50915.00 ng/mL | 11532.37 ng/mL | 551.39 ng/mL | 18512.88 pg/mL | – | 2.34 nmol/mL | 483.49 mg/dL | 4.70 µmol/g | 15.17% | 0.13 mg % | ALT (Alanine Aminotransferease) (Obese Zucker rats [1]): 119.20 u/L; AP (Alkaline phosphatase) (Obese Zucker rats [1]): 36.40 u/L; AST (Aspartate Aminotransferase) (Obese Zucker rats [1]): 218.20 u/L; BUN (Blood Urea Nitrogen) (Obese Zucker rats [1]): 18.50 mg/dL; CRT (Creatinine) (Obese Zucker rats [1]): 0.42 mg/dL; Total Bilirubin (Obese Zucker rats [1]): 0.00 mg/dL
O=C(O)c1cccnc1 [Niacin, reference compound] | 37.92 g/day | 39.67 g/day | 70.33 mg/dL | 192.17 mg/dL | 486.67 mg/dL | 93.76 ± 1.60 pg/mL | – | 34.27 ± 1.47 pmol/mL | 47.31 ± 2.78 ng/mL | 363.96 pg/mL | 53945.00 ng/mL | 8872.00 ng/mL | 548.27 ng/mL | 16855.83 pg/mL | 1365.66 pg/mL | 1.82 nmol/mL | 543.00 mg/dL | 5.32 µmol/g | 15.60% | 0.15 mg % | potentiation of the action of insulin (insulin): virtually no effect; ALT (Alanine Aminotransferease) (Obese Zucker rats [7]): 126.17 u/L; BUN (Blood Urea Nitrogen) (Obese Zucker rats [7]): 19.33 mg/dL; CRT (Creatinine) (Obese Zucker rats [7]): 0.40 mg/dL
[Cl][Cr]([Cl])[Cl] [chromium chloride] | – | – | – | – | – | – | – | – | – | – | – | – | – | – | – | – | – | – | – | – | chromium absorbed (average) [8]: 0.4 µg; absorbed by the body [9]: less than one
Chromium Histidinate [CrHis, reference compound] | – | – | 66.90 mg/dL | 189.62 mg/dL | 503.93 mg/dL | 91.98 ± 8.19 pg/mL | 24.72 ± 5.24 pg/mL | 28.07 ± 2.83 pmol/mL | 57.72 ± 2.86 ng/mL | 436.96 pg/mL | 51112.60 ng/mL | 11455.87 ng/mL | 710.26 ng/mL | – | 2974.79 pg/mL | 1.91 nmol/mL | 592.01 mg/dL | 4.68 µmol/g | 15.89% | – | chromium absorbed (average) [8]: 3.1 µg; absorbed better than chromium picolinate ([8]; relative to chromium picolinate): at least 50%; ALT (Alanine Aminotransferease) (Obese Zucker rats [7]): 168.25 u/L; AP (Alkaline phosphatase) (Obese Zucker rats [7]): 35.25 u/L; AST (Aspartate Aminotransferase) (Obese Zucker rats [7]): 248.00 u/L; Anion Gap (Obese Zucker rats [7]): 29.75; BUN (Blood Urea Nitrogen) (Obese Zucker rats [7]): 19.50 mg/dL; BUN/CRT Ratio (Obese Zucker rats [7]): 48.75; CRT (Creatinine) (Obese Zucker rats [7]): 0.40 mg/dL; Total Bilirubin (Obese Zucker rats [7]): 0.10 mg/dL; Total Chol/HDL (Obese Zucker rats [3]): 2.86 ratio
Chromium Picolinate [CrP, reference compound] | 35.85 g/day | 40.79 g/day | 66.01 mg/dL | 191.80 mg/dL | 625.35 mg/dL | 94.13 ± 2.47 pg/mL | 33.66 ± 5.27 pg/mL | 29.17 ± 2.00 pmol/mL | 49.02 ± 2.31 ng/mL | 399.55 pg/mL | 49236.91 ng/mL | 11229.84 ng/mL | 654.78 ng/mL | 20428.47 pg/mL | 4549.99 pg/mL | 2.05 nmol/mL | 527.28 mg/dL | 4.84 µmol/g | 15.54% | 0.15 mg % | ALT (Alanine Aminotransferease) (Obese Zucker rats [1]): 179.78 u/L; AP (Alkaline phosphatase) (Obese Zucker rats [1]): 40.06 u/L; AST (Aspartate Aminotransferase) (Obese Zucker rats [1]): 362.44 u/L; Anion Gap (Obese Zucker rats [1]): 29.61; BUN (Blood Urea Nitrogen) (Obese Zucker rats [1]): 20.22 mg/dL; BUN/CRT Ratio (Obese Zucker rats [1]): 49.72; CRT (Creatinine) (Obese Zucker rats [1]): 0.41 mg/dL; Total Bilirubin (Obese Zucker rats [1]): 0.07 mg/dL; chromium absorbed (average) [8]: 1.8 µg; Total Chol/HDL (Obese Zucker rats [3]): 3.02 ratio
Cr-nicotinic acid-glycine | – | – | – | – | – | – | – | – | – | – | – | – | – | – | – | – | – | – | – | – | glucose tolerance factor activity in yeast assay (yeast): significant activity
chromium polynicotinate | – | – | – | – | – | – | – | – | – | – | – | – | – | – | – | – | – | – | – | – | chromium absorbed (average) [8]: 0.2 µg
